Data published in patent US5116833A, “Antibiotic C-3 dithioacetal-substituted carbapenem compounds, compositions, and methods of use thereof” (Bristol-Myers Squibb Company, priority 1990, dated 1992).
In brackets after ≈: the same amount, converted by molar mass. Each block holds one molecule with its values, some of them ahead of it.

How the values were obtained:
[1] = Half-life (T1/2) in solution at stated pH (chemical stability); assay type: physicochemical
S. pneumoniae A-9585 = assay: Protective effect in the oral treatment of infected mice, S. pneumoniae A-9585; assay type: in vivo; conditions: Streptococcus pneumoniae, A9585, intraperitoneal challenge S. pneumoniae A-9585, 5 × 10^3 organisms, read-out: PD50/Treatment
Experimental: (§1) In order to illustrate the potent antibacterial activity and significant oral bioavailability of the carbapenems of the present invention, Tables I, II and III show data for in vitro activities (MIC), oral in vivo activities (PD50) and blood levels after oral administration of the representative drugs (Cmax, t1/2 and AUC), respectively.
(§2) The in vivo therapeutic efficacy of the representative compounds after oral administration to mice infected intraperitoneally with 0.5 ml of various bacterial suspension is shown in Table II. The values are given in PD50 (dose in mg/kg to give protection to 50% of the infected mice).

[2] = Blood levels and half-life after oral administration in mice; assay type: in vivo; conditions: mouse, 50 mg/kg
Experimental: as §1, with “respectively. Blood levels and the half-life of selected compounds of the present invention after oral administration at 50 mg/kg in mice is shown in Table III.” for “respectively.”

P. mirabalis A-9900 = assay: Protective effect in the oral treatment of infected mice, P. mirabalis A-9900; assay type: in vivo; conditions: Mus musculus, intraperitoneal challenge P. mirabalis A-9900, 4 × 10^6 organisms, read-out: PD50/Treatment
Experimental: as §1, §2

E. coli A-15119 = assay: Protective effect in the oral treatment of infected mice, E. coli A-15119; assay type: in vivo; conditions: Escherichia coli, A15119, intraperitoneal challenge E. coli A-15119, 6 × 10^6 organisms, read-out: PD50/Treatment
Experimental: as §1, §2

Ps. aeur. A9843 = assay: Minimal Inhibitory Concentration, microtiter broth dilution, Ps. aeur. A9843; assay type: cell-based; conditions: Nutrient broth, approximately 500,000 CFU/ml, 35° C. overnight
Source text: as §1
(§3) The determination was done by using microtiter broth dilution using Nutrient broth and final bacterial inoculum of approximately 500,000 CFU/ml from overnight cultures of the bacterium. The microtiter trays were then incubated at 35° C. overnight. The MIC's were determined in μg/ml as the lowest concentration of the drug which inhibits visible growth of the bacterium.

Str. Pneu. A9525 = assay: Minimal Inhibitory Concentration, microtiter broth dilution, Str. Pneu. A9525; assay type: cell-based; conditions: Nutrient broth, approximately 500,000 CFU/ml, 35° C. overnight
Source text: as §1, §3

E. coli A15119 = assay: Minimal Inhibitory Concentration, microtiter broth dilution, E. coli A15119; assay type: cell-based; conditions: Escherichia coli, Nutrient broth, approximately 500,000 CFU/ml, 35° C. overnight
Source text: as §1, §3

Staph. aur. PenR = assay: Minimal Inhibitory Concentration, microtiter broth dilution, Staph. aur. PenR; assay type: cell-based; conditions: Nutrient broth, approximately 500,000 CFU/ml, 35° C. overnight
Source text: as §1, §3

half-life ([1]; pH 7.4): 15 h
Compound: C[C@@H](O)[C@H]1C(=O)N2C(C(=O)O)=C(SCSc3ccncc3)C[C@H]12 [Ic, Potassium or sodium (5R,6S)-6-[1'(R)-hydroxyethyl]-3-[[[(pyridin-4-yl)thio]methyl]thio]-7-oxo-1-azabicyclo[3.2.0]hept-2-ene-2-carboxylate]

half-life ([1]; pH 2): 0.313 h | half-life ([1]; pH 7.4): 100 h
Compound: C[C@@H](O)[C@H]1C(=O)N2C(C(=O)O)=C(SCSc3ccccc3)[C@H](C)[C@H]12 [Id, (4R,5S,6S)-6-[1'(R)-hydroxyethyl]-4-methyl-3-[[(phenylthio)methyl]thio]-7-oxo-1-azabicyclo[3.2.0]hept-2-ene-2-carboxylate]

half-life ([1]; pH 2): 0.6 h | half-life ([1]; pH 7.4): 79 h
Compound: C[C@@H](O)[C@H]1C(=O)N2C(C(=O)O)=C(SCSc3ccccn3)[C@H](C)[C@H]12 [If, Sodium (4R,5S,6S)-6-[1'(R)-hydroxyethyl]-4-methyl-3-[[[(pyridin-2-yl)thio]methyl]thio]-7-oxo-1-azabicyclo[3.2.0]hept-2-ene-2-carboxylate]

half-life ([1]; pH 2): 0.567 h
Compound: C[C@@H](O)[C@H]1C(=O)N2C(C(=O)O)=C(SCSc3ccncc3)[C@H](C)[C@H]12 [Ig, (4R,5S,6S)-6-[1'(R)-hydroxyethyl]-4-methyl-3-[[[(pyridin-4-yl)thio]methyl]thio]-7-oxo-1-azabicyclo[3.2.0]hept-2-ene-2-carboxylate]

half-life ([1]; pH 2): 0.0333 h | half-life ([1]; pH 7.4): 22 h
Compound: C[C@@H](O)[C@H]1C(=O)N2C(C(=O)O)=C(SCSc3cccnc3)C[C@H]12 [Ih, Sodium (5R,6S)-6-[1'(R)-hydroxyethyl]-3-[[[(pyridin-3-yl)thio]methyl]thio]-7-oxo-1-azabicyclo[3.2.0]hept-2-ene-2-carboxylate]

half-life ([1]; pH 2): 0.583 h | half-life ([1]; pH 7.4): 74 h
Compound: C[C@@H](O)[C@H]1C(=O)N2C(C(=O)O)=C(SCSc3cccnc3)[C@H](C)[C@H]12 [Ii, (4R,5S,6S)-6-[1'(R)-hydroxyethyl]-4-methyl-3-[[[(pyridin-3-yl)thio]methyl]thio]-7-oxo-1-azabicyclo[3.2.0]hept-2-ene-2-carboxylate]

AUC [2]: 34000 ng·h/mL | Cmax [2]: 40000 ng/mL | half-life [2]: 0.55 h | MIC (Ps. aeur. A9843): 63 µg/mL (≈ 158 µM) | half-life ([1]; pH 7.4): 97 h | MIC (Str. Pneu. A9525): 0.004 µg/mL (≈ 0.01 µM) | MIC (E. coli A15119): 2 µg/mL (≈ 5 µM) | MIC (Staph. aur. PenR): 0.03 µg/mL (≈ 0.075 µM)
Compound: C[C@@H](O)[C@H]1C(=O)N2C(C(=O)O)=C(SCSc3ccc(Cl)cc3)[C@H](C)[C@H]12 [Ik, (4R,5S,6S)-6-[1' (R)-hydroxyethyl]-4-methyl-3-[[[(p-chlorophenyl)thio]methyl]thio]-7-oxo-1-azabicyclo[3.2.0]hept-2-ene-2-carboxylate]

half-life ([1]; pH 7.4): 46 h
Compound: C[C@@H](O)[C@H]1C(=O)N2C(C(=O)O)=C(SC[S+](C)[O-])[C@H](C)[C@H]12 (some centres unmarked) [Im]

half-life ([1]; pH 7.4, 37° C.): 106 h
Compound: C[C@@H](O)[C@H]1C(=O)N2C(C(=O)O)=C(SC[S+]([O-])c3ccc(Cl)cc3)[C@H](C)[C@H]12 (stereo partly drawn) [In, (4R,5S,6S)-3-[[[(p-chlorophenyl)sulfinyl]methyl]thio]-6-[1'(R)-hydroxyethyl]-4-methyl-7-oxo-1-azabicyclo[3.2.0]hept-2-ene-2-carboxylate]

half-life ([1]; pH 7.4, 37° C.): 77 h
Compound: C[C@@H](O)[C@H]1C(=O)N2C(C(=O)O)=C(SCSCc3cccnc3)[C@H](C)[C@H]12 [Io, (4R,5S,6S)-6-[1'(R)-hydroxyethyl]-4-methyl-3-[[[[(pyridin-3-yl)methyl]thio]methyl]thio]-7-oxo-1-azabicyclo-[3.2.0]hept-2-ene-2-carboxylate]

half-life ([1]; pH 7.4, 37° C.): 43 h
Compound: C[C@@H](O)[C@H]1C(=O)N2C(C(=O)O)=C(SC[S+]([O-])Cc3cccnc3)[C@H](C)[C@H]12 (stereo partly drawn) [Ip, (4R,5S,6S)-6-[1'(R)-hydroxyethyl]-4-methyl-3-[[[[(pyridin-3-yl)methyl]sulfinyl]methyl]thio]-7-oxo-1-azabicyclo[3.2.0]hept-2-ene-2-carboxylate]

The next lines start with the molecule.

Compound: CSC(C)SC1=C(C(=O)O)N2C(=O)[C@H]([C@@H](C)O)[C@H]2[C@H]1C (single isomer, unassigned) [Iv-A]
half-life ([1]; pH 2, 37° C.): 0.333 h

Compound: CSC(C)SC1=C(C(=O)O)N2C(=O)[C@H]([C@@H](C)O)[C@H]2[C@H]1C (single isomer, unassigned) [Iv-B]
T1/2 ([1]; pH 2, 37° C.): 0.333 h | half-life ([1]; pH 7.4, 37° C.): 56 h

Compound: CSCSC1=C(C(=O)O)N2C(=O)[C@H]([C@@H](C)O)[C@H]2C1 [Ia, Potassium or Sodium (5R,6S)-6-[1'(R)-hydroxyethyl]-3-[[(methylthio)methyl]thio]-7-oxo-1-azabicyclo[3.2.0]hept-2-ene-2-carboxylate]
half-life ([1]; pH 7.4): 20 h

Compound: CSCSC1=C(C(=O)O)N2C(=O)[C@H]([C@@H](C)O)[C@H]2[C@H]1C [Ib'']
ED50 (S. pneumoniae A-9585): 1.4 mg/kg | AUC [2]: 21000 ng·h/mL | Cmax [2]: 27000 ng/mL | half-life [2]: 0.417 h | ED50 (P. mirabalis A-9900): 3.6 mg/kg | half-life ([1]; pH 2): 0.313 h | half-life ([1]; pH 7.4): 75 h | ED50 (E. coli A-15119): 3.5 mg/kg

Compound: C[C@@H](O)[C@H]1C(=O)N2C(C(=O)O)=C(SCSc3ccc(C(=O)NN)cc3)[C@H](C)[C@H]12 [Ibb, (4R,5S,6S)-3-[[[[(p-hydrazinocarbonyl)phenyl]thio]methyl]thio]-6-[1'(R)-hydroxyethyl]-4-methyl-7-oxo-1-azabicyclo[3.2.0]hept-2-ene-2-carboxylate]
ED50 (S. pneumoniae A-9585): 16.5 mg/kg | Cmax [2]: < 1000 ng/mL

Compound: Cc1nnc(SCSC2=C(C(=O)O)N3C(=O)[C@H]([C@@H](C)O)[C@H]3[C@H]2C)o1 [Icc, (4R,5S,6S)-6-[1'(R)-hydroxyethyl]-4-methyl-3-[[[(5-methyl-1,3,4-oxadiazol-2-yl)thio]methyl]thio]-7-oxo-1-azabicyclo-[3.2.0]hept-2-ene-2-carboxylate]
ED50 (S. pneumoniae A-9585): 0.2 mg/kg | AUC [2]: 11000 ng·h/mL | Cmax [2]: 20000 ng/mL | half-life [2]: 0.233 h | MIC (Ps. aeur. A9843): 32 µg/mL (≈ 86.2 µM) | ED50 (E. coli A-15119): 1.4 mg/kg | MIC (Str. Pneu. A9525): 0.001 µg/mL (≈ 0.00269 µM) | MIC (E. coli A15119): 0.004 µg/mL (≈ 0.0108 µM) | MIC (Staph. aur. PenR): 0.03 µg/mL (≈ 0.0808 µM)

Compound: Cc1nnc(SCSC2=C(C(=O)O)N3C(=O)[C@H]([C@@H](C)O)[C@H]3[C@H]2C)s1 [Idd, (4R,5S,6S)-6-[1'(R)-hydroxyethyl]-4-methyl-3-[[[(5-methyl-1,3,4-thiadiazol-2-yl)thio]methyl]thio]-7-oxo-1-azabicyclo[3.2.0]hept-2-ene-2-carboxylate]
ED50 (S. pneumoniae A-9585): 0.3 mg/kg | AUC [2]: 10000 ng·h/mL | Cmax [2]: 12000 ng/mL | half-life [2]: 0.4 h | MIC (Ps. aeur. A9843): 32 µg/mL (≈ 82.6 µM) | ED50 (E. coli A-15119): 3.85 mg/kg | MIC (Str. Pneu. A9525): 0.001 µg/mL (≈ 0.00258 µM) | MIC (E. coli A15119): 0.008 µg/mL (≈ 0.0206 µM) | MIC (Staph. aur. PenR): 0.016 µg/mL (≈ 0.0413 µM)

Compound: C[C@@H](O)[C@H]1C(=O)N2C(C(=O)O)=C(SCSc3ccccn3)C[C@H]12 [Ie, Sodium (5R,6S)-6-[1'(R)-1-hydroxyethyl]-3-[[[(pyridin-2-yl)thio]methyl]thio]-7-oxo-1-azabicyclo[3.2.0]hept-2-ene-2-carboxylate]
half-life ([1]; pH 7.4): 19 h

Compound: C[C@@H](O)[C@H]1C(=O)N2C(C(=O)O)=C(SCSc3ccc(Cl)cc3)C[C@H]12 [Ij, (5R,6S)-6-[1'(R)-hydroxyethyl]-3-[[[(p-chlorophenyl)thio]methyl]thio]-7-oxo-1-azabicyclo[3.2.0]hept-2-ene-2-carboxylate]
half-life ([1]; pH 7.4): 26 h

Compound: C[C@@H](O)[C@H]1C(=O)N2C(C(=O)O)=C(SCSc3ccc(Cl)c(Cl)c3)[C@H](C)[C@H]12 [Iq, (4R,5S,6S)-3-[[[(3,4-dichlorophenyl)thio]methyl]thio]-6-[1'(R)-hydroxyethyl]-4-methyl-7-oxo-1-azabicyclo-[3.2.0]hept-2-ene-2-carboxylate]
AUC [2]: 24000 ng·h/mL | Cmax [2]: 33000 ng/mL | half-life [2]: 0.417 h | half-life ([1]; pH 7.4, 37° C.): 99 h | ED50 (E. coli A-15119): 25 mg/kg

Compound: C[C@@H](O)[C@H]1C(=O)N2C(C(=O)O)=C(SCSc3c(F)c(F)c(F)c(F)c3F)[C@H](C)[C@H]12 [Ir, Sodium (4R,5S,6S)-6-[1'(R)-hydroxyethyl]-4-methyl-3-[[[(2,3,4,5,6-pentafluorophenyl)thio]methyl]thio]-7-oxo-1-azabicyclo[3.2.0]hept-2-ene-2-carboxylate]
half-life ([1]; pH 7.4, 37° C.): 41 h
